US11266616B2, “Compositions and methods for inhibiting kinase activity” (BRANDEIS UNIVERSITY, priority 2016, dated 2022)
Entries after “also recorded” stand apart in the source; their conditions may differ.

Columns and labels:
[1] = molecular target: T1, ATP-binding site of Aurora A kinase (Homo sapiens, UniProt O14965); experiment: TNP-ATP fluorescence titration of dephosphorylated Aurora A kinase with or without PS48; details: FIGS. 24-26
T1 construct: Codon-optimized Aurora A^122-403 in pET28a and untagged λPP in T7-7 plasmid were co-transformed in BL21(DE3) cells; inferred from pET28a and the NiNTA column) (cleaved yes); made in house; host or cells: E. coli BL21(DE3), co-expressed with lambda protein phosphatase
T1 sequence (O14965 122-403): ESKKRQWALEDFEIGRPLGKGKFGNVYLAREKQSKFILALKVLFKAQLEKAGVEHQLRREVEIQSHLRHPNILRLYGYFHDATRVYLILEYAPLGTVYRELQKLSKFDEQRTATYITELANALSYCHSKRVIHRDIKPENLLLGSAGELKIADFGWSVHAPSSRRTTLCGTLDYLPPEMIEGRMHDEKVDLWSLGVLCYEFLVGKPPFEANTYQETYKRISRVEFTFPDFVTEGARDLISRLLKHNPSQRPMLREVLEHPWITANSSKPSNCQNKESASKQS
Protocol: TNP-ATP is excited at a wavelength of 479 nm and fluoresces at 500-600 nm. FIG. 26B is a plot showing an emission spectrum of TNP-ATP. FIG. 26C is a plot showing fluorescence spectroscopy of dephosphorylated Aurora A kinase incubated with varying amounts of TNP-ATP. FIG. 26D is a plot showing fluorescence spectroscopy of dephosphorylated Aurora A kinase and PS48 incubated with varying amounts of TNP-ATP. FIG. 26E is a plot showing fluorescence intensities measured during titration of TNP-ATP in the Aurora A kinase and PS48 sample and Aurora A kinase only sample. The dissociation constant of TNP-ATP binding to Aurora A kinase in the absence and presence of PS48 is shown at the bottom of FIG. 26E.

HeLa cells = experiment: Cell imaging of synchronized HeLa cells treated with PS48 (Aurora A localization, mitotic progression); assay type: cell-based, human
Source text: FIG. 30 is a schematic showing a summary of a protocol used for cell synchronization experiments described herein to visualize effects of PS48 on TPX2 and Aurora A interaction in vivo.
The physiological importance of the Aurora A-TPX2 interaction was then investigated through experiments using PS48 to disrupt the Aurora A-TPX2 interaction in vivo. As described herein, during the transition to mitosis, Aurora A kinase is known to localize to the centrosomes and the spindle, with levels and activity of Aurora A kinase peaking during this point. TPX2 activates Aurora A kinase and targets Aurora A kinase to the spindle during mitosis. Thus, to observe effects of disruption of the Aurora A-TPX2 interaction on the biological in vivo activities of Aurora A kinase, cells in the experiment needed to be synchronized. The live cell imaging experiments to monitor Aurora A kinase and TPX2 in vivo interaction herein were performed using HeLa cells; however, HEK293 cells may also be used (FIGS. 33-35).
To monitor mitotic progression over time with fine resolution, in addition to staining DNA, phosphorylated histone H3 (“H3_P”) was also stained to monitor levels of H3_P in cells during live cell imaging (FIG. 31). Phosphorylation of Ser10 of histone H3 is considered to be a temporal marker of mitotic progression. […]

O=C(O)/C=C(/CCc1ccc(Cl)cc1)c1ccccc1 [PS48]
effect of PS48 on the ATP binding site of Aurora A kinase (TNP-ATP binding) [1]: does not affect binding of TNP-ATP; also recorded: does not bind to the ATP binding site
localization of Aurora A to the spindle during mitosis (HeLa cells; HeLa cells treated with PS48, FIGS. 36-37): not observed at the spindles
progression of HeLa cells through mitosis (HeLa cells; presence of PS48 vs DMSO, FIG. 38): prolonged
